From US11390624B2, “Pyrazolopyridines and triazolopyridines as A2A / A2B inhibitors” (Incyte Corporation, priority 2019, dated 2022)

Assays:
[1] = molecular target: Adenosine A2A receptor (Tag-lite Adenosine A2A labeled cells) (Homo sapiens (Human), UniProt P29274); assay: A2A Tag-lite HTRF Assay; format: binding; conditions: displacement of Adenosine A2A Receptor Red antagonist fluorescent ligand, 12.5 nM
Source text: The final concentration of DMSO was 1%.

[2] = molecular target: human adenosine A2B receptor (Homo sapiens (Human), UniProt P29275); assay: Adenosine A2B Receptor Cyclic AMP GS Assay; format: cell-based; conditions: HEK-293 cells, agonist NECA at 12 nM, cAMP accumulation; read-out: A2B—cAMP_EC50
human adenosine A2B receptor, sequence (P29275 whole entry): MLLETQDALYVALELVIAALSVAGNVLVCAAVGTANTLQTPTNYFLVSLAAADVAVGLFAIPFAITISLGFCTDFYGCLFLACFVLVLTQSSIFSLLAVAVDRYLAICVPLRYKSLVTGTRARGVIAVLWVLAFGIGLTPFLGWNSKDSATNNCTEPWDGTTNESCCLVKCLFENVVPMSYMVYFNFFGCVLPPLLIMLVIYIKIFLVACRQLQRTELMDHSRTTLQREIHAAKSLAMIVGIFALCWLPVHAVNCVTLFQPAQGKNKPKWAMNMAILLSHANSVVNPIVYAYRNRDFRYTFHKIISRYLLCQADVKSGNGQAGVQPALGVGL
Protocol: Stably transfected HEK-293 cells expressing the human adenosine A2B receptor (Perkin Elmer) were maintained in MEM culture medium with 10% FBS and 100 μg/mL Geneticin (Life Technologies). 18 to 24 hours prior to assay, geneticin was removed from culture. The cisbio cAMP-GS Dynamic kit utilizing the FRET (Fluorescence Resonance Energy Transfer) technology was used to measure cAMP accumulation in the cells. Compounds of the present disclosure at an appropriate concentration were mixed with 10000 cells/well in white 96 well half area plates (Perkin Elmer) for 30 min at room temperature gently shaking. Agonist, NECA (R&D Technologies) at 12 nM was added to each well for 60 min at room temperature gently shaking. Detection reagents, d2-labeled cAMP (acceptor) and anti-cAMP cryptate (donor) were added to each well for 60 min at RT gently shaking. Plates were read on Pherastar (BMG Labtech), fluorescence ratio 665/620 was calculated and EC50 determination was performed by fitting the curve of percent of control versus the log of the compound concentration using GraphPad Prism.

Adenosine A2A receptor (Tag-lite Adenosine A2A labeled cells), sequence (P29274 whole entry): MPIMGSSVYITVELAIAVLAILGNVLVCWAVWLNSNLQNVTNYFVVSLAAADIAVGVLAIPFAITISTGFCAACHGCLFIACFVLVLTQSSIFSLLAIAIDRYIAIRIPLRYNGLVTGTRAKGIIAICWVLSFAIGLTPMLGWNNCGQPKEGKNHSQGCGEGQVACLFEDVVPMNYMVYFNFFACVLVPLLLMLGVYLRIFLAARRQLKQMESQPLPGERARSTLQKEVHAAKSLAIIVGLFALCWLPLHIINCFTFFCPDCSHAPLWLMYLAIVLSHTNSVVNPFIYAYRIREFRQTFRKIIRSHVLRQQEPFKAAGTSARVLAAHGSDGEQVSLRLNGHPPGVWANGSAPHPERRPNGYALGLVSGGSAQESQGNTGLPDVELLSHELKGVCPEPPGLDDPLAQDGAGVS

Compound	Ki [1] [nM]	EC50 [2] [nM]
N#Cc1cccc(-c2nc(N)c3cn(Cc4ccccn4)nc3c2-c2ccncn2)c1 [Example 1, 3-(4-amino-2-(pyridin-2-ylmethyl)-7-(pyrimidin-4-yl)-2H-pyrazolo[4,3-c]pyridin-6-yl)benzonitrile]	≤ 10	10 to 100
CCn1nccc1-c1c(-c2cccc(C#N)c2)nc(N)c2cn(Cc3ccccn3)nc12 [Example 2, 3-(4-amino-7-(1-ethyl-1H-pyrazol-5-yl)-2-(pyridin-2-ylmethyl)-2H-pyrazolo[4,3-c]pyridin-6-yl)benzonitrile]	≤ 10	≤ 10
N#Cc1cccc(-c2nc(N)c3cn(Cc4ncccc4F)nc3c2-c2ccncn2)c1 [Example 3, 3-(4-amino-2-((3-fluoropyridin-2-yl)methyl)-7-(pyrimidin-4-yl)-2H-pyrazolo[4,3-c]pyridin-6-yl)benzonitrile]	≤ 10	10 to 100
Cn1ccc(Cn2cc3c(N)nc(-c4cccc(C#N)c4)c(-c4ccncn4)c3n2)n1 [Example 4, 3-(4-amino-2-((1-methyl-1H-pyrazol-3-yl)methyl)-7-(pyrimidin-4-yl)-2H-pyrazolo[4,3-c]pyridin-6-yl)benzonitrile]	≤ 10	10 to 100
N#Cc1cccc(-c2nc(N)c3cn(Cc4ccccn4)nc3c2-c2ccncc2)c1 [Example 6, 3-(4-amino-2-(pyridin-2-ylmethyl)-7-(pyridin-4-yl)-2H-pyrazolo[4,3-c]pyridin-6-yl)benzonitrile]	≤ 10	≤ 10
N#Cc1cccc(-c2nc(N)c3cn(Cc4ccccc4F)nc3c2-c2ccncn2)c1 [Example 7, 3-(4-amino-2-(2-fluorobenzyl)-7-(pyrimidin-4-yl)-2H-pyrazolo[4,3-c]pyridin-6-yl)benzonitrile]	≤ 10	≤ 10
N#Cc1cccc(-c2nc(N)c3nn(Cc4ccccn4)cc3c2-c2ccncn2)c1 [Example 8, 3-(7-amino-2-(pyridin-2-ylmethyl)-4-(pyrimidin-4-yl)-2H-pyrazolo[3,4-c]pyridin-5-yl)benzonitrile]	≤ 10	≤ 10
CCn1nccc1-c1c(-c2cccc(C#N)c2)nc(N)c2nn(Cc3ccccn3)cc12 [Example 9, 3-(7-amino-4-(1-ethyl-1H-pyrazol-5-yl)-2-(pyridin-2-ylmethyl)-2H-pyrazolo[3,4-c]pyridin-5-yl)benzonitrile]	≤ 10	≤ 10
Cc1cccc(Cn2cc3c(-c4ccncn4)c(-c4cccc(C#N)c4)nc(N)c3n2)n1 [Example 10, 3-(7-amino-2-((6-methylpyridin-2-yl)methyl)-4-(pyrimidin-4-yl)-2H-pyrazolo[3,4-c]pyridin-5-yl)benzonitrile]	≤ 10	≤ 10
CCn1nccc1-c1c(-c2cccc(C#N)c2)nc(N)c2nn(Cc3cccc(C)n3)cc12 [Example 11, 3-(7-amino-4-(1-ethyl-1H-pyrazol-5-yl)-2-((6-methylpyridin-2-yl)methyl)-2H-pyrazolo[3,4-c]pyridin-5-yl)benzonitrile]	≤ 10	10 to 100
Cc1ncoc1-c1c(-c2cccc(C#N)c2)nc(N)c2nn(Cc3ccccn3)cc12 [Example 12, 3-(7-amino-4-(4-methyloxazol-5-yl)-2-(pyridin-2-ylmethyl)-2H-pyrazolo[3,4-c]pyridin-5-yl)benzonitrile]	≤ 10	10 to 100
Cc1cccc(Cn2cc3c(-c4ocnc4C)c(-c4cccc(C#N)c4)nc(N)c3n2)n1 [Example 13]	≤ 10	10 to 100
CCn1nccc1-c1c(-c2cccc(C#N)c2)nc(N)c2nn(Cc3ncccc3F)cc12 [Example 14, 3-(7-amino-4-(1-ethyl-1H-pyrazol-5-yl)-2-((3-fluoropyridin-2-yl)methyl)-2H-pyrazolo[3,4-c]pyridin-5-yl)benzonitrile]	≤ 10	≤ 10
N#Cc1cccc(-c2nc(N)c3nn(Cc4ccccn4)nc3c2-c2ccncn2)c1 [Example 16, 3-(4-amino-2-(pyridin-2-ylmethyl)-7-(pyrimidin-4-yl)-2H-[1,2,3]triazolo[4,5-c]pyridin-6-yl)benzonitrile]	≤ 10	≤ 10
Cc1ncoc1-c1c(-c2cccc(C#N)c2)nc(N)c2nn(Cc3ccccn3)nc12 [Example 17, 3-(4-amino-7-(4-methyloxazol-5-yl)-2-(pyridin-2-ylmethyl)-2H-[1,2,3]triazolo[4,5-c]pyridin-6-yl)benzonitrile]	≤ 10	≤ 10
CCn1nccc1-c1c(-c2cccc(C#N)c2)nc(N)c2nn(Cc3ccccn3)nc12 [Example 18, 3-(4-amino-7-(1-ethyl-1H-pyrazol-5-yl)-2-(pyridin-2-ylmethyl)-2H-[1,2,3]triazolo[4,5-c]pyridin-6-yl)benzonitrile]	≤ 10	≤ 10
Cc1cnccc1-c1c(-c2cccc(C#N)c2)nc(N)c2nn(Cc3ccccn3)nc12 [Example 19, 3-(4-amino-7-(3-methylpyridin-4-yl)-2-(pyridin-2-ylmethyl)-2H-[1,2,3]triazolo[4,5-c]pyridin-6-yl)benzonitrile]	≤ 10	≤ 10
Cc1nc(CO)c(-c2c(-c3cccc(C#N)c3)nc(N)c3nn(Cc4ccccn4)nc23)o1 [Example 20, 3-(4-amino-7-(4-(hydroxymethyl)-2-methyloxazol-5-yl)-2-(pyridin-2-ylmethyl)-2H-[1,2,3]triazolo[4,5-c]pyridin-6-yl)benzonitrile]	≤ 10	≤ 10
N#Cc1cccc(-c2nc(N)c3nn(Cc4ccccn4)nc3c2-c2cnco2)c1 [Example 21, 3-(4-amino-7-(oxazol-5-yl)-2-(pyridin-2-ylmethyl)-2H-[1,2,3]triazolo[4,5-c]pyridin-6-yl)benzonitrile]	≤ 10	≤ 10
N#Cc1cccc(-c2nc(N)c3nn(Cc4ccccn4)nc3c2-c2ccc3ncccc3c2)c1 [Example 22, 3-(4-amino-2-(pyridin-2-ylmethyl)-7-(quinolin-6-yl)-2H-[1,2,3]triazolo[4,5-c]pyridin-6-yl)benzonitrile]	≤ 10	≤ 10
N#Cc1cccc(-c2nc(N)c3nn(Cc4ccccn4)nc3c2-c2ccc3nccnc3c2)c1 [Example 23, 3-(4-amino-2-(pyridin-2-ylmethyl)-7-(quinoxalin-6-yl)-2H-[1,2,3]triazolo[4,5-c]pyridin-6-yl)benzonitrile]	≤ 10	100 to 1000
Cc1cccc(Cn2nc3c(N)nc(-c4cccc(C#N)c4)c(-c4ccncn4)c3n2)n1 [Example 24, 3-(4-amino-2-((6-methylpyridin-2-yl)methyl)-7-(pyrimidin-4-yl)-2H-[1,2,3]triazolo[4,5-c]pyridin-6-yl)benzonitrile]	≤ 10	≤ 10
Cc1cccc(Cn2nc3c(N)nc(-c4cccc(C#N)c4)c(-c4ccncc4)c3n2)n1 [Example 25, 3-(4-amino-2-((6-methylpyridin-2-yl)methyl)-7-(pyridin-4-yl)-2H-[1,2,3]triazolo[4,5-c]pyridin-6-yl)benzonitrile]	≤ 10	≤ 10
Cc1cccc(Cn2nc3c(N)nc(-c4cccc(C#N)c4)c(-c4ccncc4C)c3n2)n1 [Example 26, 3-(4-amino-2-((6-methylpyridin-2-yl)methyl)-7-(3-methylpyridin-4-yl)-2H-[1,2,3]triazolo[4,5-c]pyridin-6-yl)benzonitrile]	≤ 10	≤ 10
Cc1cccc(Cn2nc3c(N)nc(-c4cccc(C#N)c4)c(-c4ccc(=O)n(C)c4)c3n2)n1 [Example 27, 3-(4-amino-7-(1-methyl-6-oxo-1,6-dihydropyridin-3-yl)-2-((6-methylpyridin-2-yl)methyl)-2H-[1,2,3]triazolo[4,5-c]pyridin-6-yl)benzonitrile]	≤ 10	10 to 100
CCn1nccc1-c1c(-c2cccc(C#N)c2)nc(N)c2nn(Cc3cccc(C)n3)nc12 [Example 28, 3-(4-amino-7-(1-ethyl-1H-pyrazol-5-yl)-2-((6-methylpyridin-2-yl)methyl)-2H-[1,2,3]triazolo[4,5-c]pyridin-6-yl)benzonitrile]	≤ 10	≤ 10
Cc1cccc(Cn2nc3c(N)nc(-c4cccc(C#N)c4)c(-c4ocnc4C)c3n2)n1 [Example 29, 3-(4-amino-7-(4-methyloxazol-5-yl)-2-((6-methylpyridin-2-yl)methyl)-2H-[1,2,3]triazolo[4,5-c]pyridin-6-yl)benzonitrile]	≤ 10	≤ 10
N#Cc1cccc(-c2nc(N)c3nn(Cc4ncccc4F)nc3c2-c2ccncn2)c1 [Example 30, 3-(4-amino-2-((3-fluoropyridin-2-yl)methyl)-7-(pyrimidin-4-yl)-2H-[1,2,3]triazolo[4,5-c]pyridin-6-yl)benzonitrile]	≤ 10	≤ 10
N#Cc1cccc(-c2nc(N)c3nn(Cc4ncccc4F)nc3c2-c2ccncc2)c1 [Example 31, 3-(4-amino-2-((3-fluoropyridin-2-yl)methyl)-7-(pyridin-4-yl)-2H-[1,2,3]triazolo[4,5-c]pyridin-6-yl)benzonitrile]	≤ 10	≤ 10
Cn1cc(-c2c(-c3cccc(C#N)c3)nc(N)c3nn(Cc4ncccc4F)nc23)ccc1=O [Example 32, 3-(4-amino-2-((3-fluoropyridin-2-yl)methyl)-7-(1-methyl-6-oxo-1,6-dihydropyridin-3-yl)-2H-[1,2,3]triazolo[4,5-c]pyridin-6-yl)benzonitrile]	≤ 10	10 to 100
